# Reference: US20040259770A1, “Method for determining leukocyte activation” (Rush University Medical Center, priority 2003, published 2004)
# How the values were obtained:
# eosinophils [1] = experiment: Eosinophil superoxide production (cytochrome c reduction) in protein-coated tissue culture wells; assay type: cell-based, human; details: for inhibition of superoxide production stimulated by immobilized lactoferrin (in words): lower concentrations of heparin, any of the concentrations of chondroitin sulfate (30 to 1000 micrograms per milliliter); for inhibition of superoxide production stimulated by 30 micrograms per milliliter of immobilized lactoferrin: heparin 1000 micrograms per milliliter (highest concentration tested), 120 minutes at 37° C
# Experimental: Neutrophils were isolated from venous blood of healthy adult volunteers by density gradient centrifugation through lymphocyte separation medium (BioWhittaker; Walkersville, Md.) as described previously (Haskell M. D., et al., Blood 86:4627-4637 (1995)) with one modification. Isotonicity was restored following the brief hypotonic lysis steps by the addition of 2× concentrated Hank's Balanced Salt Solution (HBSS) (Gibco; Grand Island, N.Y.) (without Ca^2+ and Mg^2+) containing 5 mM HEPES, pH 7.4. The cells were suspended in HEPES (10 mM)-buffered HBSS (with Ca^2+ and Mg^2+), pH 7.4, containing 1 milligram per milliliter of human serum albumin (HSA) (Sigma Chemical Co.) (HEPES-HBSS-HSA buffer). Neutrophil purity was routinely greater than 95 percent, with eosinophils representing the remainder of the cells. Eosinophils were isolated from the neutrophil preparations by negative selection (Hansel T. T., et al., J. Immunol. Meth. 145:105-10 (1991)) using anti-CD16 immunomagnetic beads as described by the manufacturer (Miltenyi Biotec, Inc., Auburn, Calif.). The eosinophils were suspended in HEPES-HBSS-HSA buffer. Eosinophil purity was routinely greater than 95 percent as determined by counting Wright-stained cytospin preparations. In some assays, an aliquot of the neutrophil preparation was held on ice for later use.
# Superoxide production was measured essentially as described elsewhere (Motegi, Y., and H. Kita, J. Immunol. 161:4340 (1998)). Briefly, wells in a 96-well (flat bottom) tissue culture plate (Corning, Inc.; Corning, N.Y.) were coated with human milk lactoferrin (Sigma Chemical Co.) or human secretory IgA (ICN Biomedical; Aurora, Ohio) by incubation with 50 microliters of the indicated concentrations of the proteins in phosphate buffered saline (PBS) overnight at 4° C. Non-specific protein binding sites were blocked by subsequent incubation with 100 microliters of 25 milligrams per milliliter of HSA in PBS for 2 hours at 37° C., and the tissue culture wells were washed twice with PBS before use. Aliquots (5×10^4 cells) of eosinophils or neutrophils were added to the wells and were incubated in HEPES-HBSS—HSA buffer containing 50 micromolar cytochrome c (Sigma Chemical Co.) for 120 minutes at 37° C. in a Ceres UV900HDi microplate reader (Bio-Tek Instruments, Inc., Winooski, Vt.). Total incubation volume was 0.2 milliliters. Absorbance at 550 nanometers was recorded at 15-minute intervals, and superoxide production was calculated as described previously (Motegi, Y., and H. Kita, J. Immunol. 161:4340 (1998)). Results are expressed as nanomoles superoxide per 10^5 cells after subtraction of spontaneous production, which was measured in tissue culture wells coated only with HSA. GM-CSF (R & D Systems; Minneapolis, Minn.), porcine heparin (Sigma Chemical Co.), or chondroitin sulfate C (Sigma Chemical Co.) was added to the incubation mixtures in some assays as indicated.
# [2] = test system: lactoferrin receptors on eosinophils; experiment: Binding of 125I-labeled lactoferrin by eosinophils, Scatchard analysis; design: species or system human; details: 5 micromolar transferrin, 90 nanomolar 125I-labeled lactoferrin, n=2
# Experimental: Lactoferrin (100 micrograms) was radioiodinated using IODO-GEN iodination reagent (Pierce; Rockford, Ill.) according to the procedure supplied by the manufacturer. The lactoferrin was incubated with 400 micro Curies Na^125I (PerkinElmer Life Sciences; Boston, Mass.) for 3 min, and the ^125I-labeled lactoferrin was separated from free Na^125I by chromatography through a 5-ml D-Salt dextran desalting column (Pierce) using PBS as the elution buffer. Protein concentration of the ^125I-labeled lactoferrin was measured by the BCA assay (Pierce). Specific activity of the ^125I-labeled lactoferrin was 34,800 cpm/pmole. […] Binding of ^125I-labeled lactoferrin by eosinophils was determined using a modification of previously described protocols for eosinophils. Motegi et al. J. Immunol. […] In some experiments as indicated, binding was measured in the presence of excess unlabeled transferrin. […] The supernatant was removed by careful aspiration, and after quick-freezing on dry ice the tip of the tube containing the cell pellet was excised and the radioactivity was measured by gamma counting (Beckman Coulter Gamma 5500B). Specific binding was determined as the difference between total binding and binding in the presence of the excess unlabeled lactoferrin. Binding constants were determined by Scatchard analysis (Scatchard, G., Ann. N.Y. Acad. Sci. 51:660 (1949)).
# eosinophils [3] = experiment: Eosinophil degranulation: EDN release by ELISA; assay type: cell-based, human; details: 100 picograms per milliliter GM-CSF, 3 and 10 micrograms per milliliter immobilized lactoferrin
# Experimental: Eosinophils (2×10^5) were incubated in the presence and absence of 100 picograms per milliliter of GM-CSF in RPMI 1640 containing 1 milligram per milliliter of HSA for 4 hours at 37° C. in 5 percent CO2 in tissue culture wells precoated with lactoferrin or secretory IgA as above. Total incubation volume was 0.2 milliliters. Reactions were stopped by centrifugation at 300 g for 5 minutes at 4° C., and supernatants were stored at −20° C. until measurement of eosinophil-derived neurotoxin (EDN) content by specific ELISA (MBL International, Watertown, Mass.). Spontaneous release of EDN was determined with cells incubated in HSA-coated wells.
# eosinophils [4] = experiment: Eosinophil leukotriene C4 production by ELISA; assay type: cell-based, human
# Experimental: Eosinophils (2×10^5) were incubated in the presence and absence of 100 pg/ml GM-CSF in RPMI 1640 containing 10 mM HEPES for 1 hr at 37° C. in tissue culture wells precoated with lactoferrin or secretory IgA as above with one modification. The tissue culture wells were not treated with HSA and HSA was not added to the incubation buffer to minimize loss of leukotriene C4. Total incubation volume was 0.2 ml. Reactions were stopped by centrifugation at 300 g for 5 min at 4° C., and supernatants were stored at −20° C. until measurement of leukotriene C4 content by a leukotriene C4/D4/E4 ELISA (Amersham Pharmacia Biotech; Piscataway, N.J.). Spontaneous leukotriene C4 production was determined with eosinophils incubated in untreated tissue culture wells.
substance,measurement,setting,value
chondroitin sulfate [reference compound],effect on superoxide production stimulated by immobilized lactoferrin (in words),"eosinophils [1]; 1000 micrograms per milliliter, 30 micrograms per milliliter immobilized lactoferrin","slight, but statistically significant, increase in superoxide production"
same,inhibition of superoxide production stimulated by immobilized lactoferrin (in words),eosinophils [1],neither the lower concentrations of heparin nor any of the concentrations of chondroitin sulfate inhibited the eosinophil superoxide production
transferrin: unlabeled transferrin used in excess as competitor in the binding experiments [reference compound],inhibition of eosinophil binding of 125I-labeled lactoferrin,[2],not inhibited
GM-CSF: granulocyte macrophage colony stimulating factor (R & D Systems),effect of GM-CSF on EDN release stimulated by immobilized lactoferrin,eosinophils [3],significantly enhanced EDN release
same,leukotriene C4 production,"eosinophils [4]; 100 picograms per milliliter GM-CSF alone, 1 hour",175 picograms leukotriene C4 per 10^6 eosinophils
same,effect of GM-CSF on leukotriene C4 release stimulated by immobilized lactoferrin,"eosinophils [4]; 100 picograms per milliliter GM-CSF, 10 to 100 micrograms per milliliter immobilized lactoferrin",significantly enhanced leukotriene C4 release
same,reduction by GM-CSF of the concentration of immobilized lactoferrin required for maximal superoxide production or EDN release,eosinophils [1]; 100 picograms per milliliter GM-CSF,approximately three-fold
same,effect of GM-CSF on superoxide production stimulated by immobilized lactoferrin,"eosinophils [1]; 100 picograms per milliliter GM-CSF, 10 micrograms per milliliter immobilized lactoferrin",enhanced the amount of superoxide production
same,effect of GM-CSF on superoxide production stimulated by immobilized lactoferrin,"eosinophils [1]; 100 picograms per milliliter GM-CSF, higher concentrations of immobilized lactoferrin",did not appear to increase the level of superoxide production
same,GM-CSF stimulated superoxide production,"eosinophils [1]; GM-CSF alone (100 picograms per milliliter), 2-hour time point, five assays",2.8±0.7 nanomoles of superoxide per 10^5 eosinophils
heparin [reference compound],inhibition of superoxide production stimulated by 10 micrograms per milliliter immobilized secretory IgA,"eosinophils [1]; 1000 micrograms per milliliter heparin, not statistically significant (p=0.07)",28+/−11%
same,inhibition of superoxide production stimulated by 30 micrograms per milliliter of immobilized lactoferrin,eosinophils [1],approximately 25%
same,inhibition of superoxide production stimulated by 30 micrograms per milliliter of immobilized lactoferrin,eosinophils [1]; listed as Heparin,25%
same,inhibition of superoxide production stimulated by immobilized lactoferrin (in words),eosinophils [1],neither the lower concentrations of heparin nor any of the concentrations of chondroitin sulfate inhibited the eosinophil superoxide production
"immobilized transferrin: transferrin, family member of lactoferrin, coated on tissue culture wells [reference compound]",stimulation of eosinophil superoxide production (in words),"eosinophils [1]; 1 to 100 micrograms per milliliter of the protein, 2 hours at 37° C",did not stimulate superoxide production
